The values below come from patent publication US20070128217A1 (priority 2003, published 2007).

The subject of experiment [1] is antibodies in sera from SARS patients (sera 1a, 1b, 2, 6, 37, 62, London, SARS-yellow, SARS-green). It counts as binding, human. Details: Binding of serum 6 to linear peptides of protein X1 of SARS-CoV Urbani / Binding of serum 37 to linear peptides of protein X1 of SARS-CoV Urbani / Binding of serum 6 to looped/cyclic peptide (PEPSCAN-ELISA) / Binding of serum 37 to looped/cyclic peptide (PEPSCAN-ELISA) / Binding of serum 37 to looped/cyclic peptides of protein X1 of SARS-CoV Urbani / Binding of serum 6 to linear peptides of protein X2 / Binding of serum 37 to linear peptides of protein X2 / Binding of serum 37 to looped/cyclic peptides of protein X2 of SARS-CoV Urbani / Binding of serum 6 to linear peptides of protein M of SARS-CoV Urbani / Binding of serum 37 to linear peptides of protein M of SARS-CoV Urbani / Binding of serum 6 to looped/cyclic peptides of protein M of SARS-CoV Urbani / Binding of serum 37 to looped/cyclic peptides of protein M of SARS-CoV Urbani / Binding of serum 6 to linear peptides of protein X3 of SARS-CoV Urbani / Binding of serum 37 to linear peptides of protein X3 of SARS-CoV Urbani / Binding of serum 37 to looped/cyclic peptides of protein X3 of SARS-CoV Urbani / Binding of serum 6 to linear peptides of protein X4 of SARS-CoV Urbani / Binding of serum 37 to linear peptides of protein X4 of SARS-CoV Urbani / Binding of serum 37 to looped/cyclic peptides of protein X4 of SARS-CoV Urbani / Binding of serum 6 to linear peptides of protein X5 of SARS-CoV Urbani / Binding of serum 37 to linear peptides of protein X5 of SARS-CoV Urbani / Binding of serum 37 to looped/cyclic peptides of protein X5 of SARS-CoV Urbani / Binding of serum 6 to linear peptides of protein N of SARS-CoV Urbani / Binding of serum 37 to linear peptides of protein N of SARS-CoV Urbani / Binding of serum 6 to linear peptide (PEPSCAN-ELISA) / Binding of serum 1a to looped/cyclic peptides of protein N of SARS-CoV Urbani / Binding of serum 1b to looped/cyclic peptides of protein N of SARS-CoV Urbani / Binding of serum 2 to looped/cyclic peptides of protein N of SARS-CoV Urbani / Binding of serum 6 to looped/cyclic peptides of protein N of SARS-CoV Urbani / Binding of serum 37 to looped/cyclic peptides of protein N of SARS-CoV Urbani / Binding of serum 62 to looped/cyclic peptides of protein N of SARS-CoV Urbani / Binding of serum London to looped/cyclic peptides of protein N of SARS-CoV Urbani / Binding of serum SARS-green to looped/cyclic peptides of protein N of SARS-CoV Urbani: unit not given here.

In experiment [2] the test system is control sera (pooled serum of ten healthy LUMC hospital workers; commercial negative donor pooled serum from the Dutch bloodbank). It counts as binding, human. On the set-up: Binding of Control serum LUMC to linear peptides / Binding of Control serum Blood-bank to linear peptides / Binding of Control serum LUMC to looped peptides / Binding of Control Serum Blood-Bank to Looped peptides / Binding of Control serum LUMC to linear peptides of the protein M of SARS-CoV Urbani / Binding of Control serum Blood-bank to linear peptides of the protein M of SARS-CoV Urbani / Binding of Control serum LUMC to looped peptides of the protein M of SARS-CoV Urbani / Binding of Control Serum Blood-Bank to Looped peptides of the protein M of SARS-CoV Urbani: unit not given here.

Experiment [3] deals with rabbit serum obtained by immunizing a rabbit with the SARS-CoV strain Frankfurt 1. Type of experiment: binding. Details: Binding of a rabbit serum to linear peptides / Binding of a rabbit serum to looped peptides / Rabbit serum linear peptides / Rabbit serum looped peptides / Binding of a rabbit serum to linear peptides of protein N of SARS-CoV Urbani (Rabbit serum linear peptides) / Binding of a rabbit serum to looped/cyclic peptides of protein N of SARS-CoV Urbani (Rabbit serum looped peptides): unit not given here.

As to IKDLPKEITVATSRT, in experiment [1], the “Binding of serum 1a to linear peptides of protein M of SARS-CoV Urbani” value is 0.7, the “Binding of serum 1a to looped/cyclic peptides of protein M of SARS-CoV Urbani” value stood at 0.4, the “Binding of serum 1b to linear peptides of protein M of SARS-CoV Urbani” value worked out at 0.5 and the “Binding of serum 1b to looped/cyclic peptides of protein M of SARS-CoV Urbani” value was 0.4. Further, in experiment [1], the “Binding of serum 2 to linear peptides of protein M of SARS-CoV Urbani” value worked out at 0.6, the “Binding of serum 2 to looped/cyclic peptides of protein M of SARS-CoV Urbani” value was determined as 0.5, the “Binding of serum 6 to linear peptides of protein M of SARS-CoV Urbani” value was 0.3 and the “Binding of serum 6 to looped/cyclic peptides of protein M of SARS-CoV Urbani” value worked out at 0.4. Further, in experiment [1], the “Binding of serum 37 to linear peptides of protein M of SARS-CoV Urbani” value was found to be 0.8, the “Binding of serum 37 to looped/cyclic peptides of protein M of SARS-CoV Urbani” value worked out at 0.6, the “Binding of serum 62 to linear peptides of protein M of SARS-CoV Urbani” value came to 0.8 and the “Binding of serum 62 to looped/cyclic peptides of protein M of SARS-CoV Urbani” value worked out at 0.6. In addition, in experiment [1], the “Binding of serum London to linear peptides of protein M of SARS-CoV Urbani” value is listed as 0.3, the “Binding of serum London to looped/cyclic peptides of protein M of SARS-CoV Urbani” value is 0.2, the “Binding of serum SARS-green to linear peptides of protein M of SARS-CoV Urbani” value was determined as 0.2 and the “Binding of serum SARS-green to looped/cyclic peptides of protein M of SARS-CoV Urbani” value is given as 0.3. Besides, in experiment [1], the “Binding of serum SARS-yellow to linear peptides of protein M of SARS-CoV Urbani” value was determined as 0.0 and the “Binding of serum SARS-yellow to looped/cyclic peptides of protein M of SARS-CoV Urbani” value was determined as 0.9. In experiment [2], the “Binding of Control Serum Blood-Bank to Looped peptides of the protein M of SARS-CoV Urbani” value was 0.5, the “Binding of Control serum Blood-bank to linear peptides of the protein M of SARS-CoV Urbani” value amounted to 0.6, the “Binding of Control serum LUMC to linear peptides of the protein M of SARS-CoV Urbani” value came out at 0.4 and the “Binding of Control serum LUMC to looped peptides of the protein M of SARS-CoV Urbani” value came to 0.7. Moreover, in experiment [3], the “Rabbit serum linear peptides” value turned out to be 0.3 and the “Rabbit serum looped peptides” value is reported as 0.2.
As to IKLVFLWLLWPVTLA, in experiment [1], the “Binding of serum 1a to linear peptides of protein M of SARS-CoV Urbani” value is 0.7, the “Binding of serum 1a to looped/cyclic peptides of protein M of SARS-CoV Urbani” value came out at 0.7, the “Binding of serum 1b to linear peptides of protein M of SARS-CoV Urbani” value turned out to be 0.5 and the “Binding of serum 1b to looped/cyclic peptides of protein M of SARS-CoV Urbani” value came to 0.8. Besides, in experiment [1], the “Binding of serum 2 to linear peptides of protein M of SARS-CoV Urbani” value was 0.7, the “Binding of serum 2 to looped/cyclic peptides of protein M of SARS-CoV Urbani” value is 0.6, the “Binding of serum 6 to linear peptides of protein M of SARS-CoV Urbani” value is 0.5 and the “Binding of serum 6 to looped/cyclic peptides of protein M of SARS-CoV Urbani” value was 0.9. In experiment [1], the “Binding of serum 37 to linear peptides of protein M of SARS-CoV Urbani” value was 0.6, the “Binding of serum 37 to looped/cyclic peptides of protein M of SARS-CoV Urbani” value turned out to be 0.8, the “Binding of serum 62 to linear peptides of protein M of SARS-CoV Urbani” value was determined as 0.7 and the “Binding of serum 62 to looped/cyclic peptides of protein M of SARS-CoV Urbani” value was 0.8. In experiment [1], the “Binding of serum London to linear peptides of protein M of SARS-CoV Urbani” value is given as 0.6, the “Binding of serum London to looped/cyclic peptides of protein M of SARS-CoV Urbani” value was 0.3, the “Binding of serum SARS-green to linear peptides of protein M of SARS-CoV Urbani” value is 0.3 and the “Binding of serum SARS-green to looped/cyclic peptides of protein M of SARS-CoV Urbani” value was determined as 0.3. For the same sequence, in experiment [1], the “Binding of serum SARS-yellow to linear peptides of protein M of SARS-CoV Urbani” value is on record as 0.1 and the “Binding of serum SARS-yellow to looped/cyclic peptides of protein M of SARS-CoV Urbani” value came out at 0.5. Moreover, in experiment [2], the “Binding of Control Serum Blood-Bank to Looped peptides of the protein M of SARS-CoV Urbani” value is reported as 0.9, the “Binding of Control serum Blood-bank to linear peptides of the protein M of SARS-CoV Urbani” value worked out at 0.7, the “Binding of Control serum LUMC to linear peptides of the protein M of SARS-CoV Urbani” value is 0.4 and the “Binding of Control serum LUMC to looped peptides of the protein M of SARS-CoV Urbani” value is listed as 0.7. In experiment [3], the “Rabbit serum linear peptides” value came out at 0.3 and the “Rabbit serum looped peptides” value worked out at 0.0.
For ILFLTLIVFTSCELY, in experiment [1], the “Binding of serum 1a to linear peptides of protein X4 of SARS-CoV Urbani” value is reported as 0.7, the “Binding of serum 1a to looped/cyclic peptides of protein X4 of SARS-CoV Urbani” value stood at 0.7, the “Binding of serum 1b to linear peptides of protein X4 of SARS-CoV Urbani” value worked out at 0.6 and the “Binding of serum 1b to looped/cyclic peptides of protein X4 of SARS-CoV Urbani” value came to 0.4. Further, in experiment [1], the “Binding of serum 2 to linear peptides of protein X4 of SARS-CoV Urbani” value came to 0.5, the “Binding of serum 2 to looped/cyclic peptides of protein X4 of SARS-CoV Urbani” value is on record as 0.7, the “Binding of serum 6 to linear peptides of protein X4 of SARS-CoV Urbani” value is on record as 0.5 and the “Binding of serum 6 to looped/cyclic peptides of protein X4 of SARS-CoV Urbani” value worked out at 0.6. Further, in experiment [1], the “Binding of serum 37 to linear peptides of protein X4 of SARS-CoV Urbani” value worked out at 0.7, the “Binding of serum 37 to looped/cyclic peptides of protein X4 of SARS-CoV Urbani” value was determined as 0.7, the “Binding of serum 62 to linear peptides of protein X4 of SARS-CoV Urbani” value is 0.7 and the “Binding of serum 62 to looped/cyclic peptides of protein X4 of SARS-CoV Urbani” value amounted to 0.7. Moreover, in experiment [1], the “Binding of serum London to linear peptides of protein X4 of SARS-CoV Urbani” value stood at 0.6, the “Binding of serum London to looped/cyclic peptides of protein X4 of SARS-CoV Urbani” value is listed as 0.3, the “Binding of serum SARS-green to linear peptides of protein X4 of SARS-CoV Urbani” value is on record as 0.6 and the “Binding of serum SARS-green to looped/cyclic peptides of protein X4 of SARS-CoV Urbani” value came to 0.4. Besides, in experiment [1], the “Binding of serum SARS-yellow to linear peptides of protein X4 of SARS-CoV Urbani” value is recorded as 0.4 and the “Binding of serum SARS-yellow to looped/cyclic peptides of protein X4 of SARS-CoV Urbani” value came out at 0.6. Also, in experiment [2], the “Binding of Control Serum Blood-Bank to Looped peptides” value was determined as 0.7, the “Binding of Control serum Blood-bank to linear peptides” value was determined as 0.6, the “Binding of Control serum LUMC to linear peptides” value was 0.7 and the “Binding of Control serum LUMC to looped peptides” value was 0.8. In experiment [3], the “Rabbit serum linear peptides” value was found to be 0.7 and the “Rabbit serum looped peptides” value is 0.2.
As to ILRIGTQVLKTMSLY, in experiment [1], the “Binding of serum 1a to linear peptides of protein X2” value worked out at 0.7, the “Binding of serum 1a to looped/cyclic peptides of protein X2 of SARS-CoV Urbani” value is 0.6, the “Binding of serum 1b to linear peptides of protein X2” value was found to be 0.5 and the “Binding of serum 1b to looped/cyclic peptides of protein X2 of SARS-CoV Urbani” value is recorded as 0.5. In experiment [1], the “Binding of serum 2 to linear peptides of protein X2” value is on record as 0.4, the “Binding of serum 2 to looped/cyclic peptides of protein X2 of SARS-CoV Urbani” value is 0.3, the “Binding of serum 6 to linear peptides of protein X2” value was found to be 0.4 and the “Binding of serum 6 to looped/cyclic peptides of protein X2 of SARS-CoV Urbani” value is recorded as 0.5. Moreover, in experiment [1], the “Binding of serum 37 to linear peptides of protein X2” value is on record as 0.6, the “Binding of serum 37 to looped/cyclic peptides of protein X2 of SARS-CoV Urbani” value is 0.5, the “Binding of serum 62 to linear peptides of protein X2” value is reported as 0.6 and the “Binding of serum 62 to looped/cyclic peptides of protein X2 of SARS-CoV Urbani” value was found to be 0.6. In experiment [1], the “Binding of serum London to linear peptides of protein X2” value came out at 0.4, the “Binding of serum London to looped/cyclic peptides of protein X2 of SARS-CoV Urbani” value came out at 0.3, the “Binding of serum SARS-green to linear peptides of protein X2” value is reported as 0.4 and the “Binding of serum SARS-green to looped/cyclic peptides of protein X2 of SARS-CoV Urbani” value is 0.3. Further, in experiment [1], the “Binding of serum SARS-yellow to linear peptides of protein X2” value was 0.5 and the “Binding of serum SARS-yellow to looped/cyclic peptides of protein X2 of SARS-CoV Urbani” value was determined as 0.6. In experiment [2], the “Binding of Control Serum Blood-Bank to Looped peptides” value is given as 0.7, the “Binding of Control serum Blood-bank to linear peptides” value turned out to be 0.6, the “Binding of Control serum LUMC to linear peptides” value was determined as 0.4 and the “Binding of Control serum LUMC to looped peptides” value is listed as 0.7. For the same sequence, in experiment [3], the “Binding of a rabbit serum to linear peptides” value is given as 0.3 and the “Binding of a rabbit serum to looped peptides” value was determined as 0.5.
